The values that follow come from ChEMBL document CHEMBL3525902, “In vitro metabolism of oxymetazoline: evidence for bioactivation to a reactive metabolite” (Drug Metab Dispos, 2011).

Data set [1] deals with Liver. Description: Drug level in NADPH supplemented human liver S9 fraction treated with 50 uM oxymetazoline assessed as compound formation after 1 hr by LC-MS/MS method. Type of data set: ADME, subcellular. Particulars: s9, 1 h.
The test system of data set [2] is Liver. The experiment in a line: Drug level in NADPH supplemented rat liver S9 fraction treated with 50 uM oxymetazoline assessed as compound formation after 1 hr by LC-MS/MS method. Type of data set: ADME, subcellular. Particulars: s9, 1 h.
Data set [3] is described as follows: Drug level in NADPH supplemented rabbit liver S9 fraction treated with 50 uM oxymetazoline assessed as compound formation after 1 hr by LC-MS/MS method. The class given is ADME, subcellular, Oryctolagus cuniculus. Particulars: s9, 1 h.
Data set [4] in a line: Retention time of the compound at 50 uM by LC-MS/MS method. Type of data set: physicochemical.
The nature of data set [5]: Drug level in NADPH supplemented human liver S9 fraction treated with 50 uM oxymetazoline assessed as compound-glutathione conjugate formation in presence of glutathione by LC-MS/MS method. The class given is ADME, subcellular.
Data set [6] is described as follows: Drug level in NADPH supplemented rabbit liver microsomes fraction treated with 50 uM oxymetazoline assessed as compound formation after 1 hr by LC-MS/MS method. Type of data set: ADME, Oryctolagus cuniculus.
The test system of data set [7] is Liver microsome. The experiment in a line: Drug level in NADPH supplemented rat liver microsomes fraction treated with 50 uM oxymetazoline assessed as compound formation after 1 hr by LC-MS/MS method. The class given is ADME.
Data set [8] concerns Liver microsome. Description: Drug level in NADPH supplemented human liver microsomes fraction treated with 50 uM oxymetazoline assessed as compound formation after 1 hr by LC-MS/MS method. Type of data set: ADME.
A short description of data set [9]: Drug level in NADPH supplemented rat liver S9 fraction treated with 50 uM oxymetazoline assessed as compound-glutathione conjugate formation in presence of glutathione by LC-MS/MS method. The class given is ADME, subcellular.
Data set [10] can be described thus: Drug level in NADPH supplemented rabbit liver S9 fraction treated with 50 uM oxymetazoline assessed as compound-glutathione conjugate formation in presence of glutathione by LC-MS/MS method. The class given is ADME, subcellular, Oryctolagus cuniculus.
Data set [11] deals with T1, Cytochrome P450 2C19 (Homo sapiens, UniProt P33261). Description: Activity of human recombinant CYP2C19 assessed as compound formation from 50 uM oxymetazoline in presence of NADPH by LC-MS/MS method. As to conditions: recombinant enzyme. Type of data set: ADME.
Data set [12] can be described thus: Drug level in NADPH supplemented rabbit liver S9 fraction treated with 50 uM oxymetazoline assessed as compound-N-acetyl cysteine conjugate formation in presence of N-acetyl cysteine by LC-MS/MS method. The class given is ADME, subcellular, Oryctolagus cuniculus.
The target of data set [13] is T1, Cytochrome P450 2C19. The experiment in a line: Activity of human recombinant CYP2C19 assessed as compound formation from 50 uM oxymetazoline in presence of NADPH and glutathione by LC-MS/MS method. Type of data set: ADME. As to conditions: recombinant enzyme.

T1 sequence (P33261 whole entry): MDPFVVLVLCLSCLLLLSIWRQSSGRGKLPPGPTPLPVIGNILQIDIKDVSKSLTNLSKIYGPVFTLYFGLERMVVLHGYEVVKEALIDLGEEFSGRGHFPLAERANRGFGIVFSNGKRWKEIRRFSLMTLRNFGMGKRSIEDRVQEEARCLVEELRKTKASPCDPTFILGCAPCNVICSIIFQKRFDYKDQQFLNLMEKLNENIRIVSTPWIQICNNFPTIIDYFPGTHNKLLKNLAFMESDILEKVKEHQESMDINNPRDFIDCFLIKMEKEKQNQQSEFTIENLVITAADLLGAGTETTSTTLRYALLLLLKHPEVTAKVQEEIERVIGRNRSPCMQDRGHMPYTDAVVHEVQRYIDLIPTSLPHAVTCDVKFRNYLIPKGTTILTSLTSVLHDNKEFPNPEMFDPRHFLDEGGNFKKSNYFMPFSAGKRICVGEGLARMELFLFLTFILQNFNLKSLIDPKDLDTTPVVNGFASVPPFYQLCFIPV

Regarding `Cc1cc(C(C)(C)CO)c(O)c(C)c1CC1=NCCN1`, the Drug metabolism entry in data set [1], in data set [2], in data set [3], in [5], in [6] and in [7] was “metabolite_detected” in each case. For the same compound, the Drug metabolism entry in data set [8], in data set [9], in data set [10] and in data set [11] was “metabolite_detected” throughout. In [4], this compound displayed a Retention_time of 4.95 min.
As for `Cc1cc(C(C)(C)C)c(O)c(C)c1Cc1ncc[nH]1`, the Drug metabolism entry in [1], in [2], in data set [3], in data set [6], in data set [7] and in data set [8] was “metabolite_detected” each time. Also, the Drug metabolism entry in data set [12] and in data set [11] was “metabolite_detected” in each case. This compound also yielded a Retention_time in data set [4] of 12.36 min.
With `Cc1cc(C(C)(C)CO)c(O)c(C)c1Cc1ncc[nH]1`, the Drug metabolism entry in data set [1], in data set [2], in data set [3], in [5], in [6] and in data set [7] was “metabolite_detected” throughout. In addition, the Drug metabolism result in data set [8], in [9], in data set [10] and in [11] was “metabolite_detected” in each case. The same compound came in with a Retention_time in data set [4] of 5.64 min.
With `CC(=O)N[C@@H](CSCc1cc(C(C)(C)C)c(O)c(C)c1CC1=NCCN1)C(=O)O`, the Drug metabolism entry in data set [12] was “metabolite_detected”.
Turning to `Cc1c(O)c(C(C)(C)C)cc(CSC[C@H](NC(=O)CC[C@H](N)C(=O)O)C(=O)NCC(=O)O)c1CC1=NCCN1`, the Drug metabolism result in [13], in data set [1], in [2], in data set [3], in data set [5] and in data set [9] was “metabolite_detected” throughout. Besides, in [10], the Drug metabolism entry is listed as “metabolite_detected”. This compound also displayed a Retention_time in data set [4] of 4.22 min.
For the compound `Cc1c(O)c(C(C)(C)C)cc(CSC[C@H](NC(=O)CC[C@H](N)C(=O)O)C(=O)NCC(=O)O)c1Cc1ncc[nH]1`, the Drug metabolism entry in data set [13], in data set [1], in data set [2], in data set [3], in data set [5] and in [9] was “metabolite_detected” throughout. The Drug metabolism entry in data set [10] is reported as “metabolite_detected”. Further, the Retention_time in data set [4] is reported as 4.65 min.
Turning to `Cc1c(O)c(C(C)(C)C)cc(CSC[C@H](N)C(=O)O)c1CC1=NCCN1`, the Drug metabolism entry in data set [1] and in data set [3] was “metabolite_detected” each time. The Retention_time in data set [4] worked out at 3.17 min.
`Cc1c(O)c(C(C)(C)C)cc(CSC[C@H](N)C(=O)O)c1Cc1ncc[nH]1`: the Drug metabolism result in data set [3] is listed as “metabolite_detected”. This compound also showed a Retention_time in data set [4] of 3.48 min.
On to `Cc1c(O)c(C(C)(C)CO)cc(CSC[C@H](NC(=O)CC[C@H](N)C(=O)O)C(=O)NCC(=O)O)c1CC1=NCCN1`, for which, in [3], the Drug metabolism entry is listed as “metabolite_detected”. This compound also showed a Retention_time in data set [4] of 3.86 min.
In the same order, the values of `Cc1c(O)c(C(C)(C)CO)cc(CSC[C@H](NC(=O)CC[C@H](N)C(=O)O)C(=O)NCC(=O)O)c1Cc1ncc[nH]1` are “metabolite_detected” and 6.34 min.
